From ChEMBL document CHEMBL1201862, “PubChem BioAssay data set” (2004)
Activity calls are given as the source filed them.

Tests used:
[1] = test system: Streptococcus sp. 'group A'; assay: Streptococcus pyogenes SK(-)GAS viability under kanamycin – luminescence, BacTiterGlo, confirmation, counter-screen for streptokinase expression inhibitor project, dose response (AID 1900); format: functional, organism-based
[2] = biological target: T1, Streptokinase A (Streptococcus pyogenes serotype M1, UniProt P10520); assay: viability-normalized secreted streptokinase activity reduction – plasminogen activation absorbance, OD405, dose response (AID 1914); format: functional, Streptococcus pyogenes M1 GAS;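 further: secreted streptokinase activity via plasminogen activation per viability signal from cell pellet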
T1 sequence (P10520 whole entry): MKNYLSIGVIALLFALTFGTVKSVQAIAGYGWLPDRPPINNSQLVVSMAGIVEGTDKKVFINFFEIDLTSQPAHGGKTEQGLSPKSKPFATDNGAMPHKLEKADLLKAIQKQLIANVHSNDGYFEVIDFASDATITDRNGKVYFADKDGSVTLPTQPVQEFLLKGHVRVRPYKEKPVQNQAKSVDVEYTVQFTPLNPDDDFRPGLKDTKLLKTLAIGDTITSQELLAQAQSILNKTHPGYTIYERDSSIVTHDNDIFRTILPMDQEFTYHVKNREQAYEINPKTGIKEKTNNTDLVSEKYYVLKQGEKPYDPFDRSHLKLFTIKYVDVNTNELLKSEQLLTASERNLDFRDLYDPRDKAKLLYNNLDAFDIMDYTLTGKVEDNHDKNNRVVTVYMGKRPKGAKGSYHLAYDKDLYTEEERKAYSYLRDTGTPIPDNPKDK

[3] = Trypanosoma cruzi growth suppression in host cells – NIH3T3 host cells, beta-gal luminescence, confirmation (AID 2044); format: functional, cell-based;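 further: intracellular parasites grown in NIH/3T3 mouse fibroblasts as host cells; luminescent beta-galactosidase reporter signal from transgenic T. cruzi replicating inside host cells; inhibitors lower the luminescence signal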
[4] = NIH3T3 cell viability loss – ATP luminescence, mouse fibroblasts, counter-screen, dose response (AID 2010); format: functional, cell-based;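 further: cells exposed to compound for about 90 hours before reading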
[5] = test system: Streptococcus; assay: GAS UMAA2166 growth inhibition – luminescence, BacTiterGlo, counter-screen for streptokinase expression inhibitor project, dose response (AID 1915); format: functional, organism-based;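 further: potency for reduction of bacterial viability or growth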
[6] = biological target: T2, Replicative DNA helicase DnaB (Mycobacterium tuberculosis, UniProt P9WMR3); assay: DnaB intein splicing inhibitors, dose response, biochemical, cell-free fluorescence (AID 449749); format: functional
T2 sequence (P9WMR3 whole entry): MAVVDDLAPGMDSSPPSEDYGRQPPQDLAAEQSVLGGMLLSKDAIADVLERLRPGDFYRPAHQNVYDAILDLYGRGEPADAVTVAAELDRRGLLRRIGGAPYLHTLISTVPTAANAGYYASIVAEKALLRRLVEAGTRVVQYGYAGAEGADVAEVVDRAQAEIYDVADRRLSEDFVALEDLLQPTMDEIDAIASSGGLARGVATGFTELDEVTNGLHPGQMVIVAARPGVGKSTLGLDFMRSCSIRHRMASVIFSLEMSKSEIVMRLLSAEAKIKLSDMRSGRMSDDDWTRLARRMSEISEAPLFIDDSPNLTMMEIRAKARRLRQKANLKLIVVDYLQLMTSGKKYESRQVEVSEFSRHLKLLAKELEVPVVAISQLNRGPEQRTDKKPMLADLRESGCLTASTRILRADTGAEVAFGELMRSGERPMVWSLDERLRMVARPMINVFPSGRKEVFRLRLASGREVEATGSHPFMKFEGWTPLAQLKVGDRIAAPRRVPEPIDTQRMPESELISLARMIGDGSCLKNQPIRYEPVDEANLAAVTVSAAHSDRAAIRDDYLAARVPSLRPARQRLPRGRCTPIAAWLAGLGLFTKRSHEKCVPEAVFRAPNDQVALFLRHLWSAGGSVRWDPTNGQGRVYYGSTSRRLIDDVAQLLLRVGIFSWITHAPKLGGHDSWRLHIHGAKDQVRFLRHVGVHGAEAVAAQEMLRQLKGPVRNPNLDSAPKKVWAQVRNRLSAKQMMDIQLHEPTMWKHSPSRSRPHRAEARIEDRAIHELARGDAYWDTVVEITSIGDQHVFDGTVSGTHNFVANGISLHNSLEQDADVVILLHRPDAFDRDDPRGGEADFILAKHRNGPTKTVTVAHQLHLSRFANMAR

[7] = biological target: T3, Protein RecA (Mycobacterium tuberculosis, UniProt P9WHJ3); assay: Fluorescence Cell-Free Homogeneous Dose Retest to Identify Inhibitors of RecA-Intein Splicing Activity. [Related pubchem assays (depositor defined):AID2097, AID2223, AID489010, AID492950]; format: functional
T3 sequence (P9WHJ3 whole entry): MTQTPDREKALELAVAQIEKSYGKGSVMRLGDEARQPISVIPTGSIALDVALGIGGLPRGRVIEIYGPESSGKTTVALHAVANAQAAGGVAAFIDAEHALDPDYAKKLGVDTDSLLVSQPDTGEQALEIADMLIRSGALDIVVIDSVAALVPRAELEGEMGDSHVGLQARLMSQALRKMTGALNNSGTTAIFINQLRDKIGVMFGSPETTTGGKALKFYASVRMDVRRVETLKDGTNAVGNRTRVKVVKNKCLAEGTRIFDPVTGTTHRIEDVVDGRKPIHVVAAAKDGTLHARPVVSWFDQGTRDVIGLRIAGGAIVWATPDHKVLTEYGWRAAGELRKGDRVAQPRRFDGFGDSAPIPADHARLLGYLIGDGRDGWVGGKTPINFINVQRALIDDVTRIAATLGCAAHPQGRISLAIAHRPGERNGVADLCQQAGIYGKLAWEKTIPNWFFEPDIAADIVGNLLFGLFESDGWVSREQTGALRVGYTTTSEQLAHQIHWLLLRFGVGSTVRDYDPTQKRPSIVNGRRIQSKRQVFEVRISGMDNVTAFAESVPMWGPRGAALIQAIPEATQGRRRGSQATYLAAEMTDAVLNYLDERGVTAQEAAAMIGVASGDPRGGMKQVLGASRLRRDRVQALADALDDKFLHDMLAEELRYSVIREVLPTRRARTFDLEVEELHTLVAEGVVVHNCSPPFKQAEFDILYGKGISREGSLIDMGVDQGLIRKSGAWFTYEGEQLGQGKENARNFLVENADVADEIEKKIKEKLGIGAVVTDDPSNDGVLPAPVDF

[8] = biological target: 26S proteasome non-ATPase regulatory subunit 14 (Homo sapiens, UniProt O00487); assay: inhibition of proteasome subunit RPN11 – biochemical, fluorescence polarization, uHTS hits, confirmation (AID 602368); format: functional
Chain of 26S proteasome non-ATPase regulatory subunit 14 (O00487 whole entry): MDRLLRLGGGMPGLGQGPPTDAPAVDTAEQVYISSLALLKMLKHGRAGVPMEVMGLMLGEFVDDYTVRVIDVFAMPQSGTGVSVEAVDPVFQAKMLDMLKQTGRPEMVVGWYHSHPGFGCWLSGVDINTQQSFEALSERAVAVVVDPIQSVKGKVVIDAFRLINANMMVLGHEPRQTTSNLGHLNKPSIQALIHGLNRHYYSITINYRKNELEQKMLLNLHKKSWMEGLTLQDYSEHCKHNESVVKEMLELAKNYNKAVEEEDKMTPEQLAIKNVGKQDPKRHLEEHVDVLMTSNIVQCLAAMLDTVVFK

[9] = biological target: 72 kDa type IV collagenase (Homo sapiens, UniProt P08253); assay: Dose Response validation of uHTS RPN11 inhibitor hits using a MMP-2 Fluorescence assay.; format: functional
Chain of 72 kDa type IV collagenase (P08253 whole entry): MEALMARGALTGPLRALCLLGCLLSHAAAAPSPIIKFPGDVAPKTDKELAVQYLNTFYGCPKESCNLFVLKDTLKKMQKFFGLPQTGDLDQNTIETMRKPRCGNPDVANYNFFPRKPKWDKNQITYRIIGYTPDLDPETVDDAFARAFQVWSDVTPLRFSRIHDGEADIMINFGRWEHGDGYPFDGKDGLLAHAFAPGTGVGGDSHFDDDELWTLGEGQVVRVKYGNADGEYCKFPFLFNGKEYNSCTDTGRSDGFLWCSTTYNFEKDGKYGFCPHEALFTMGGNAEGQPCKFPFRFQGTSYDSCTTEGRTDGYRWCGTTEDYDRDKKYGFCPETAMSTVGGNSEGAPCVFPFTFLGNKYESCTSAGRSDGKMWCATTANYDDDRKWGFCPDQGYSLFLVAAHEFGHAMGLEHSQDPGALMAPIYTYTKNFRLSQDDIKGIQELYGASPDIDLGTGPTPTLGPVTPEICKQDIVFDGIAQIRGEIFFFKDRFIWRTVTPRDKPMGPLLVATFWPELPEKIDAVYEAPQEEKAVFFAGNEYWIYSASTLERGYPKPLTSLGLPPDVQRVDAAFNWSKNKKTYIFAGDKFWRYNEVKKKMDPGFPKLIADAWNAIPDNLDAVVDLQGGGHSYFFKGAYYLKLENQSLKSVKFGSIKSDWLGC

[10] = biological target: Prothrombin (Bos taurus, UniProt P00735); assay: thrombin protease inhibitors – biochemical, fluorescence polarization, uHTS hits, dose response (AID 602369); format: functional
[11] = biological target: Nonstructural protein 1 (Influenza A virus, UniProt Q194T2); format: functional, Influenza A virus (A/California/07/2009(H1N1))
Chain of Nonstructural protein 1 (Q194T2 whole entry): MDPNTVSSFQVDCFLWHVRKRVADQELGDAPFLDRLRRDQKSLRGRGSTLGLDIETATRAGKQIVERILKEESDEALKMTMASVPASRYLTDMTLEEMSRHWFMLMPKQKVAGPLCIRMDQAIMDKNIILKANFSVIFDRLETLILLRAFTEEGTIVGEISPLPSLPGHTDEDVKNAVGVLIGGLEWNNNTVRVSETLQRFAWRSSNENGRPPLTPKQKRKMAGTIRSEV

[12] = biological target: Delta-type opioid receptor (Homo sapiens, UniProt P41143); assay: Counterscreen for agonists of heterodimerization of the mu 1 (OPRM1) and delta 1 (OPRD1) opioid receptors: Luminescence-based cell-based high throughput dose response assay to identify agonists of OPRD1 homodimerization. [Related pubchem assays (depositor defined):AID504326, AID504355, AID504692, AID504904, AID504905]; format: functional
Chain of Delta-type opioid receptor (P41143 whole entry): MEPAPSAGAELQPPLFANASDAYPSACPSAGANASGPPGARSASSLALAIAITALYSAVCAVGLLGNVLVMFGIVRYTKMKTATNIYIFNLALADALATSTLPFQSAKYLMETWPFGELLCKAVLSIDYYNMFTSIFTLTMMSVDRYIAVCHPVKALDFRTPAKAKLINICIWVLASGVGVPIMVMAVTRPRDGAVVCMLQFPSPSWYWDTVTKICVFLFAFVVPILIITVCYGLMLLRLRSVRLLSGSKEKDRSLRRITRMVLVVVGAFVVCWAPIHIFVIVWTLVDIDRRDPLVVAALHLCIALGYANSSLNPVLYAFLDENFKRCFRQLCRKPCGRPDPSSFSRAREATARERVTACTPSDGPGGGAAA

[13] = biological target: Mu-type opioid receptor (Homo sapiens, UniProt P35372); assay: Counterscreen for agonists of heterodimerization of the mu 1 (OPRM1) and delta 1 (OPRD1) opioid receptors: Luminescence-based cell-based high throughput dose response assay to identify agonists of OPRM1 homodimerization.; format: functional;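 further: U2OS cells expressing OPRM1 and beta-arrestin as split beta-galactosidase partners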
[14] = biological target: 5-hydroxytryptamine receptor 5A (Homo sapiens, UniProt P47898); assay: Counterscreen for agonists of OPRM1-OPRD1 heterodimerization: luminescence-based cell-based high throughput dose response assay to identify agonists of 5-hydroxytryptamine (serotonin) 5A receptor (HTR5A). [Related pubchem assays (depositor defined):AID504326, AID504355, AID504692, AID504904, AID504905]; format: functional
Chain of 5-hydroxytryptamine receptor 5A (P47898 whole entry): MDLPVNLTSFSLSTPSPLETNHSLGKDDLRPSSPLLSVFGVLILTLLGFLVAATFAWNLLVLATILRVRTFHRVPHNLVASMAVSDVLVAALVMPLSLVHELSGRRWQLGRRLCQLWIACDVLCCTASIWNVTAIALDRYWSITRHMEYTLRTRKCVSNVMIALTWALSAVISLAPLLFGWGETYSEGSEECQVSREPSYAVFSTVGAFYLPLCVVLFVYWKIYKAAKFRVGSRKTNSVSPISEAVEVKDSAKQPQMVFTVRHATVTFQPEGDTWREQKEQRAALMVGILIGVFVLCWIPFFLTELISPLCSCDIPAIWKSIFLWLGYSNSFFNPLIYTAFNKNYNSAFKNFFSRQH

[15] = biological target: Ras and Rab interactor 1/Tyrosine-protein kinase ABL1 (Homo sapiens, UniProt P00519+Q13671); format: functional;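 further: biochemical TR-FRET dose-response test measuring inhibition of binding between Rin1 and Abl proteins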
Chain of Ras and Rab interactor 1/Tyrosine-protein kinase ABL1 (P00519 whole entry): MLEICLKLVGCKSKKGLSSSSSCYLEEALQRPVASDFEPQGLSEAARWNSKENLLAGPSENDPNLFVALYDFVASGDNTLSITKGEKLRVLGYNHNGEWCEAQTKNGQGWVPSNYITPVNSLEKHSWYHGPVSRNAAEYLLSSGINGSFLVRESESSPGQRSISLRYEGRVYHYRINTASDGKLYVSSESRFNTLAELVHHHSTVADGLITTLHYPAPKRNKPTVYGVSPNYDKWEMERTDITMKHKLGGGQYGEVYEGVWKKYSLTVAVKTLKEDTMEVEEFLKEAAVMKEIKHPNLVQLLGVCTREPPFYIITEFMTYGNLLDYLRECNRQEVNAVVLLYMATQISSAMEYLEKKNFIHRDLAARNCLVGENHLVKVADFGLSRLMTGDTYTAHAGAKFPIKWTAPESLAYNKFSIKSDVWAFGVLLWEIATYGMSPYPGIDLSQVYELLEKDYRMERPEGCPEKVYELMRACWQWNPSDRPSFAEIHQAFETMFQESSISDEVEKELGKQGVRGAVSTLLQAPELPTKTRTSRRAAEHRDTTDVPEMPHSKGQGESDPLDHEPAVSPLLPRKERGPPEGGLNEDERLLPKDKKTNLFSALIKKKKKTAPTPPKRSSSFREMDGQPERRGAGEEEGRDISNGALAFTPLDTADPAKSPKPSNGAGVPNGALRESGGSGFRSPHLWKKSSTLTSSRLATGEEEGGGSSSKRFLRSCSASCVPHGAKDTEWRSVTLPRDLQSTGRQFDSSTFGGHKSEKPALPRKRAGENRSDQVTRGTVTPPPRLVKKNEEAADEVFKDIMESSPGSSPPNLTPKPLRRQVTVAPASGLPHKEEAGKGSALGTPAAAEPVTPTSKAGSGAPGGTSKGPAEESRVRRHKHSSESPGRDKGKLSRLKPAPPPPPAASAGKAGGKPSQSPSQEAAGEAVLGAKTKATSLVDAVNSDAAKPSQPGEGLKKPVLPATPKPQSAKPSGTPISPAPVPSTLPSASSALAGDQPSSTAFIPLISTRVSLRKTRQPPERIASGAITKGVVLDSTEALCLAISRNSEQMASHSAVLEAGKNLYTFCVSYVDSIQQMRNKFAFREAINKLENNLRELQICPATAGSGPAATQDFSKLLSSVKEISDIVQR
Chain of Ras and Rab interactor 1/Tyrosine-protein kinase ABL1 (Q13671 whole entry): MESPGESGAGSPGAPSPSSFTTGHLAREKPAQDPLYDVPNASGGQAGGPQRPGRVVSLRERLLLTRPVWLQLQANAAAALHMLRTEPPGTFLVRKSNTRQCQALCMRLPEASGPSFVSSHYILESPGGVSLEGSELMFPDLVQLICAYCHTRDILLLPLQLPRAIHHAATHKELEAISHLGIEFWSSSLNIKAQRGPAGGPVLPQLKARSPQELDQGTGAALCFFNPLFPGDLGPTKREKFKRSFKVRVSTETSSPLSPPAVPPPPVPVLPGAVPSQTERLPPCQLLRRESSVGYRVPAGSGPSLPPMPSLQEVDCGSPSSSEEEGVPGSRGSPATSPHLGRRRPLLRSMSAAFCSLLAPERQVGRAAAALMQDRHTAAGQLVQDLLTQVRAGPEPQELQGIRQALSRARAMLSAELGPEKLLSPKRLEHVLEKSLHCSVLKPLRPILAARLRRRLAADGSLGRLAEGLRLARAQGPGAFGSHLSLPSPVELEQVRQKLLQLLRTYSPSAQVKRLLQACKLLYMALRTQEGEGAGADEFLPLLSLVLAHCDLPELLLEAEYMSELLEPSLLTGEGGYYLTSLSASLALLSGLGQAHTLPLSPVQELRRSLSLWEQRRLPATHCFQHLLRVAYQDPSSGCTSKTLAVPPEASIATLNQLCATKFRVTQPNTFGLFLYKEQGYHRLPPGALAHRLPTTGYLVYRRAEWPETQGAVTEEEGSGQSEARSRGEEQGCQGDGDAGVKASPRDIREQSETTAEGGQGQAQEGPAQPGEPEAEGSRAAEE

[16] = reduction of Shn3 3'UTR-driven luciferase in osteoblasts – cell-based, Clone20 osteoblasts, firefly luciferase, cherry-picked, dose response (AID 624132); format: functional;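 further: firefly luciferase luminescence from reporter carrying the Shn3 3'UTR in osteoblasts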
[17] = loss of viability in HepG2 cells – cell-based, CellTiter-Glo, cherry-picked, cytotoxicity control for Shn3 inhibitor project, dose response (AID 624134); format: functional
[18] = non-specific 3'UTR reporter inhibition in Clone20-Shn3RL – cell-based, Renilla luciferase, cherry-picked, counter-screen for Shn3 inhibitor project, dose response (AID 624133); format: functional
[19] = biological target: T4, Apoptotic protease-activating factor 1 (Homo sapiens, UniProt O14727); assay: SAR analysis of small molecule Activators of Apaf-1 in a Fluorescent assay.; format: functional; settings: read-out: EC50_Mean;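 further: caspase-3 cleavage of fluorogenic Rh110 DEVD substrate downstream of apoptosome activation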
T4 sequence (O14727 whole entry): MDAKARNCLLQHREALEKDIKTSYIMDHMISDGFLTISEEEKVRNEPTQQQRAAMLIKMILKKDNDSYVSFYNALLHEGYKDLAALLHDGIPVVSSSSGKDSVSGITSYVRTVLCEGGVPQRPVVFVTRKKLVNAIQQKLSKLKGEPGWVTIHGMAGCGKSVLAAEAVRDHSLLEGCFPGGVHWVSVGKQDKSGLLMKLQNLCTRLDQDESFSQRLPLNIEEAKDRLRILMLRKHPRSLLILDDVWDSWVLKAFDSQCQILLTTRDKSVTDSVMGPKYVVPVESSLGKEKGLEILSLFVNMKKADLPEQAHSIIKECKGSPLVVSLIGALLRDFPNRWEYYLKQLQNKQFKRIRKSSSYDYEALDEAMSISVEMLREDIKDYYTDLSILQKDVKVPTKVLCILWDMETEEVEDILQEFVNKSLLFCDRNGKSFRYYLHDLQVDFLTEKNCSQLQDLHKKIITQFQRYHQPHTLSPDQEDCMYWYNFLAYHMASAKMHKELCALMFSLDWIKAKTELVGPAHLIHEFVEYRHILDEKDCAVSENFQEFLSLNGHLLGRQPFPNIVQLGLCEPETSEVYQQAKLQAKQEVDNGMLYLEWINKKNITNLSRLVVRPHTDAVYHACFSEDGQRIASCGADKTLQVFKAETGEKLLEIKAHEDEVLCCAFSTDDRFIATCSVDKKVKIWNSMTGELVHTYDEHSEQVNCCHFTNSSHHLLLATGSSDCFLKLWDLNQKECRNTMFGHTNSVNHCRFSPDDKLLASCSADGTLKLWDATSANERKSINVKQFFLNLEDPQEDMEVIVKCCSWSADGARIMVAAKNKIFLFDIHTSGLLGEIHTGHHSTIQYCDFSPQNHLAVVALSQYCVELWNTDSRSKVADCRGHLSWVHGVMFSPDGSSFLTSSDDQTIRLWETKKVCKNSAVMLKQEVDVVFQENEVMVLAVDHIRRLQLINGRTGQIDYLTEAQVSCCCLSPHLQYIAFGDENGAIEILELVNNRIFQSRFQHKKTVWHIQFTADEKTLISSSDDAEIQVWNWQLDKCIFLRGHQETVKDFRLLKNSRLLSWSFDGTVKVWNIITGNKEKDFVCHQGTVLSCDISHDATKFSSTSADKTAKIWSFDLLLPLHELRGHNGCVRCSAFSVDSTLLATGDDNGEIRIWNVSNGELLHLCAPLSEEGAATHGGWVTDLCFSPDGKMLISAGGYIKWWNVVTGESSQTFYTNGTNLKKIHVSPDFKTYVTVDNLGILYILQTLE

[20] = biological target: Melanin-concentrating hormone receptor 1 (Homo sapiens, UniProt Q99705); assay: Late-stage fluorescence-based counterscreen for antagonists of the G-protein coupled receptor 7 (GPR7): cell-based dose response assay to identify antagonists of the melanin-concentrating hormone receptor 1 (MCHR1) Set 6.; format: functional
Chain of Melanin-concentrating hormone receptor 1 (Q99705 whole entry): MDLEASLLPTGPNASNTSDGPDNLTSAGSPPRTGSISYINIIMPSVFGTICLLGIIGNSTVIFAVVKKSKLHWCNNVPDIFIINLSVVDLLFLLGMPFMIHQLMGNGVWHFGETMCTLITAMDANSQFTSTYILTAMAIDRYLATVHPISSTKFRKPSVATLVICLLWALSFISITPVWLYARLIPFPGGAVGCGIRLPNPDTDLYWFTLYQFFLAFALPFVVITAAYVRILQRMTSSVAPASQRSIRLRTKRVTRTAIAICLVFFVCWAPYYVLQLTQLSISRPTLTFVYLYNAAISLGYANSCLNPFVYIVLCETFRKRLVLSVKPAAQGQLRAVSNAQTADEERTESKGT

[21] = biological target: Neuropeptides B/W receptor type 1 (Homo sapiens, UniProt P48145); assay: human NPBW1 receptor blockade, IC50 – cell-based, fluorescence, dose response, set 6, late-stage follow-up (AID 588583); format: functional
Chain of Neuropeptides B/W receptor type 1 (P48145 whole entry): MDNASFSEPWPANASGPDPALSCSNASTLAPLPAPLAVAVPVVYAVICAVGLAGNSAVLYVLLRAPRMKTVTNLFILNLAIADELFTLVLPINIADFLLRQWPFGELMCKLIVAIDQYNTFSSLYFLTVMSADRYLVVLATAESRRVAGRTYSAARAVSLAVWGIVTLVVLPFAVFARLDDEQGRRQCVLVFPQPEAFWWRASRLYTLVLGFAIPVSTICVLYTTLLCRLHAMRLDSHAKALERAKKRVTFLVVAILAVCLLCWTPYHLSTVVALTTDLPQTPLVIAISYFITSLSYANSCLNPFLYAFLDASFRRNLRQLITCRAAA

[22] = biological target: T5, Interleukin-8 (Homo sapiens, UniProt P10145); assay: Dose Response confirmation of uHTS small molecule hits for cystic fibrosis induced NFkb Inhibitors in a TNFa-induced IL8 counterscreen.; format: functional; settings: read-out: IC50_Mean
T5 sequence (P10145 whole entry): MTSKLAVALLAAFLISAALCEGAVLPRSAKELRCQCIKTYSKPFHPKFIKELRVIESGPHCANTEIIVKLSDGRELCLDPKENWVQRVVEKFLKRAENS

[23] = biological target: T5, Interleukin-8; assay: Dose Response confirmation of uHTS small molecule hits for cystic fibrosis induced NFkb Inhibitors in a PAF-induced IL8 counterscreen.; format: functional; settings: read-out: IC50_Mean

Nc1c(-c2ccccc2)c(CSc2nc3ccccc3[nH]2)nn1-c1cccc(Cl)c1
EC50 [1]: 2.14 µM (active)
EC50 [2]: > 150 µM (not active)
EC50 [3]: 1.17 µM (active)
EC50 [4]: > 60 µM (not active)
EC50 [5]: > 150 µM (not active)
AC50 [6]: 3.17 µM (active)
EC50 [7]: 2.71 µM (active)
IC50 [8]: 34 µM (active)
IC50 [9]: > 100 µM (inactive)
IC50 [10]: 41.5 µM (active)

Cc1nc2nc(C)n(CCN3CCOCC3)c(=O)c2c(-c2cccc([N+](=O)[O-])c2)c1C(=O)CCCCCCCCCCN1CCC(c2ccccc2)(c2ccccc2)CC1
IC50 [11]: 21.9 µM (active)
EC50 [12]: > 92.4 µM (inactive)
EC50 [13]: > 92.4 µM (inactive)
EC50 [14]: > 92.4 µM (inactive)
IC50 [15]: 1.35 µM (active)
AC50 [16]: 7.38 µM (active)
AC50 [17]: 14.7 µM (active)
AC50 [18]: 11.3 µM (active)

Cc1cc(C)c(O)c(N2CC(C(=O)O)CC2=O)c1 (stereo not given)
EC50 [19]: > 100 µM (inactive)

COc1ccc(Oc2c(Cl)cnn(Cc3ccccc3Br)c2=O)cc1
IC50 [20]: 0.506 µM (active)
IC50 [21]: 0.506 µM (active)

CC(C#N)(c1ccccc1)c1c(Br)cnn(Cc2cccc3ccccc23)c1=O (stereo not given)
IC50 [20]: 0.326 µM (active)
IC50 [21]: 0.326 µM (active)

Fc1cccc(Cl)c1/C=N/Nc1c(Cl)cncc1Cl
IC50 [22]: > 79 µM (inactive)
IC50 [23]: 14.8 µM (inactive)
